Source: patent publication US20060074243A1, “Hydroxamic acid and amide compounds and their use as protease inhibitors” (Pharmacia Corporation, priority 2002, published 2006)

Biological target: T1, Human recombinant MMP-13 (Homo sapiens, UniProt P45452)
T1 construct: made in house; host or cells: baculovirus / insect cells
Assay: In vitro MMP inhibition analysis (fluorogenic peptide substrate cleavage), Ki
Type: biochemical
Experimental: Several compounds and salts were analyzed in an in vitro assay to determine their ability to inhibit the MMP cleavage of peptide substrates. Inhibition constant (Ki) were calculated from the assayed compound-MMP interactions.
Human recombinant MMP-1, MMP-2, MMP-9, MMP-13, and MMP-14 were used in this assay. All enzymes were prepared in Assignee's laboratories following usual laboratory procedures. Protocols for the preparation and use of these enzymes are available in the scientific literature. See, e.g., Enzyme Nomenclature (Academic Press, San Diego, Calif., 1992) (and the citations therein). See also, Frije et al., J. Biol. Chem., 26(24), 16766-73 (1994).
The MMP-13 was obtained as a proenzyme from a full-length cDNA clone using baculovirus, as described by V. A. Luckow, “Insect Cell Expression Technology,” Protein Engineering: Principles and Practice, pp. 183-218 (edited by J. L. Cleland et al., Wiley-Liss, Inc., 1996). The expressed proenzyme was first purified over a heparin agarose column, and then over a chelating zinc chloride column. The proenzyme was then activated by APMA for use in the assay. Further details on baculovirus expression systems may be found in, for example, Luckow et al., J. Virol., 67, 4566-79 (1993). See also, O'Reilly et al, Baculovirus Expression Vectors: A Laboratory Manual (W.H. Freeman and Co., New York, N.Y., 1992). See also, King et al., The Baculovirus Expression System: A Laboratory Guide (Chapman & Hall, London, England, 1992).
All MMPs were activated using 4-aminophenylmercuric acetate (“APMA”, Sigma Chemical, St. Louis, Mo.) or trypsin. MMP-9 also was activated using human recombinant MMP-3 (purified in Assignee's laboratory following standard cloning and purification techniques).
The following fluorogenic, methoxycoumarin-containing polypeptide substrate (I) was used in the MMP inhibition assays: MCA-ArgProLeuGlyLeuDpaAlaArgGluArgNH2 (I) “MCA” is 7-methoxycoumarin-4-yl acetyl. Substrate (I) was prepared Assignee's laboratory. In the absence of MMP inhibitory activity, the substrate is cleaved at the Gly-Leu peptide bond. This cleavage separates the highly fluorogenic peptide from the 2,4-dinitrophenyl quencher, thus resulting in increase of fluorescent intensity.
The stock solutions of the assayed compounds and salts were prepared in […] (DMSO). These stock solutions were diluted in Buffer A (100 mM Tris-HCl, 100 mM NaCl, 10 mM CaCl2, 0.05% polyoxyethylene 23 lauryl ether, pH 7.5) to obtain solutions with different compound concentrations, i.e., assay solutions with different concentrations of the assayed […] compound. The experiment controls contained the same amount of Buffer A/DMSO as the assayed sample, but contained none of the tested compound or salt.
The assays from which the Ki determinations were made were performed as follows. The assayed compound samples were incubated in separate wells of untreated white polystyrene plates (Nunc Nalgene International, Rochester, N.Y.), and analyzed on a Tecan SpectraFlour Plus plate reader. The excitation wavelength was 330 nm, and the emission wavelength—420 nm. All samples (assayed compounds and controls) were incubated in separate plate wells at room temperature for 1 hr in the presence of 4 μM of MMP substrate (I). In the absence of MMP inhibitory activity, substrate (I) was cleaved at the Gly-Leu bond resulting in an increase of relative fluorescence. Inhibition was observed as a reduced rate of this increase in relative fluorescence. […] This protocol is a modification of method by Knight et al., FEBS Lett., 296(3), 263-266 (1992). Apparent inhibitory constants were determined by non-linear regression of reaction velocity as a function of inhibitor and enzyme concentration using Morrison's equation, as described by Kuzmic, Anal. Biochem. 286, 45-50 (2000). […]

| Ki (Table 2) [nM] | Ki (Table 1) [nM] | SMILES |
| --- | --- | --- |
| 2.59 |  | CCN1CCC(C(=O)NO)(S(=O)(=O)c2ccc(-c3noc(-c4ccc(F)cc4)n3)cc2)CC1 [Example 147] |
| 0.018 |  | CCCCOc1ccc(-c2ccc(S(=O)(=O)C3(C(=O)NO)CCN(CCOC)CC3)cc2)cc1 [Example 119] |
| 0.007 |  | O=C(NO)C1(S(=O)(=O)c2ccc(-c3ccc(OCCCC(F)(F)F)cn3)cc2)CCOCC1 [Example 144] |
|  | 0.212 | CC(F)(F)CCc1cnc(-c2ccc(S(=O)(=O)C3(C(=O)NO)CCOCC3)cc2)cn1 [Example 60] |
|  | 0.221 | CC(C)(C)N1CCC(C(=O)NO)(S(=O)(=O)c2ccc(-c3ccc(CCCC(F)(F)F)cc3)cc2)CC1 [Example 48] |
| 0.021 |  | CCN1CCC(C(=O)NO)(S(=O)(=O)c2ccc(-c3ccc(-c4ccncc4)cc3)cc2)CC1 [Example 136] |
|  | 0.0403 | O=C(NO)C1(S(=O)(=O)c2ccc(-c3ccc(CCC(F)(F)C(F)(F)F)cn3)cc2)CCOCC1 [Example 36] |
| 0.299 |  | CCCCCc1ccc(-c2ccc(S(=O)(=O)C3(C(=O)NO)CCOCC3)cc2)cc1 [Example 75] |
|  | 0.02 | CCN1CCC(C(=O)NO)(S(=O)(=O)c2ccc(-c3ccc(CCC(C)(F)F)cc3)cc2)CC1 [Example 61] |
|  | 0.46 | O=C(NO)C1(S(=O)(=O)c2ccc(-c3ccc(CCC(F)(F)C(F)(F)F)cc3)cc2)CCN(C2CC2)CC1 [Example 45] |
| 0.383 |  | O=C(NO)C1(S(=O)(=O)c2ccc(-c3ccc(CCC4CCCCC4)cn3)cc2)CCOCC1 [Example 129] |
|  | 0.011 | COCCN1CCC(C(=O)NO)(S(=O)(=O)c2ccc(-c3ccc(OC(F)(F)C(F)F)cc3)cc2)CC1 [Example 39] |
|  | 0.13 | O=C(NO)C1(S(=O)(=O)c2ccc(-c3ccc(CCCC(F)(F)F)cc3)cc2)CCN(C2CC2)CC1 [Example 44] |
|  | 0.296 | CCN1CCC(C(=O)NO)(S(=O)(=O)c2ccc(-c3cnc(CCC(C)(F)F)cn3)cc2)CC1 [Example 64] |
| 0.12 |  | O=C(NO)C1(S(=O)(=O)c2ccc(-c3ccc(-c4ccccc4F)cn3)cc2)CCN(C2CC2)CC1 [Example 150] |
| 1.27 |  | CC(C)(C)CCNc1cnc(-c2ccc(S(=O)(=O)C3(C(=O)NO)CCOCC3)cc2)cn1 [Example 130] |
| 0.45 |  | CCN1CCC(C(=O)NO)(S(=O)(=O)c2ccc(-c3noc(-c4ccc(C(F)(F)F)cc4)n3)cc2)CC1 [Example 149] |
| 0.12 |  | O=C(NO)C1(S(=O)(=O)c2ccc(-c3cnc(OCC(F)(F)C(F)(F)F)cn3)cc2)CCOCC1 [Example 154] |
| 0.03 |  | O=C(NO)C1(S(=O)(=O)c2ccc(-c3ccc(-n4ccnc4)cc3)cc2)CCOCC1 [Example 127] |

| Ki (Table 2) [nM] | Ki (Table 1) [nM] | SMILES |
| --- | --- | --- |
|  | 0.028 | CCOCCOc1ccc(-c2ccc(S(=O)(=O)C3(C(=O)NO)CCOCC3)cc2)cc1 [Example 37] |
|  | 0.02 | O=C(NO)C1(S(=O)(=O)c2ccc(-c3ccc(OC(F)(F)C(F)F)cc3)cc2)CCN(CCl)CC1 [Example 38] |
|  | 0.05 | CC(F)(F)CCc1ccc(-c2ccc(S(=O)(=O)C3(C(=O)NO)CCN(C4CC4)CC3)cc2)cc1 [Example 59] |
| 3.4 |  | O=C(NO)C1(S(=O)(=O)c2ccc(-c3cnc(NCC4CC4)cn3)cc2)CCOCC1 [Example 128] |
| 0.058 |  | CCCCc1ccc(-c2ccc(S(=O)(=O)C3(C(=O)NO)CCN(CC)CC3)cc2)nc1 [Example 140] |
|  | 0.71 | O=C(NO)C1(S(=O)(=O)c2ccc(-c3cnc(CCC4CC4)cn3)cc2)CCOCC1 [Example 49] |
|  | 0.12 | O=C(NO)C1(S(=O)(=O)c2ccc(-c3ccc(CCC(F)(F)C(F)(F)F)cn3)cc2)CCN(C2CC2)CC1 [Example 50] |
|  | 0.01 | COCCN1CCC(C(=O)NO)(S(=O)(=O)c2ccc(-c3ccc(CCC(C)(F)F)cc3)cc2)CC1 [Example 63] |
| 31.7 |  | CC(=O)Nc1cnc(-c2ccc(S(=O)(=O)C3(C(=O)NO)CCOCC3)cc2)cn1 [Example 76] |
|  | 0.07 | COCCN1CCC(C(=O)NO)(S(=O)(=O)c2ccc(-c3ccc(CCC(C)(F)F)cn3)cc2)CC1 [Example 67] |
|  | 0.066 | O=C(NO)C1(S(=O)(=O)c2ccc(-c3ccc(OC(F)(F)C(F)F)cc3)cc2)CCN(C2CC2)CC1 [Example 40] |
|  | 0.23 | CC(F)(F)CCc1cnc(-c2ccc(S(=O)(=O)C3(C(=O)NO)CCN(C4CC4)CC3)cc2)cn1 [Example 66] |
|  | 0.11 | COCCN1CCC(C(=O)NO)(S(=O)(=O)c2ccc(-c3ccc(CCC(F)(F)C(F)(F)F)cc3)cc2)CC1 [Example 46] |
|  | 0.4 | COCCC(C(=O)NO)S(=O)(=O)c1ccc(-c2ccc(CCCC(F)(F)F)cc2)cc1 (centres unmarked) [Example 47] |
| 4.86 |  | O=C(NO)C1(S(=O)(=O)c2ccc(-c3ncccn3)cc2)CCOCC1 [Example 121] |
|  | 0.224 | O=C(NO)C1(S(=O)(=O)c2ccc(-c3ccc(CCC(F)(F)C(F)(F)F)cc3)cc2)CCOCC1 [Example 41] |
|  | 0.07 | CCN1CCC(C(=O)NO)(S(=O)(=O)c2ccc(-c3ccc(CCC(F)(F)C(F)(F)F)cn3)cc2)CC1 [Example 52] |
|  | 0.222 | O=C(NO)C1(S(=O)(=O)c2ccc(-c3cnc(CCC(F)(F)C(F)(F)F)cn3)cc2)CCOCC1 [Example 55] |
| 0.05 |  | O=C(NO)C1(S(=O)(=O)c2ccc(-c3ccc(-c4ccccc4)cn3)cc2)CCN(C2CC2)CC1 [Example 151] |

| Ki (Table 2) [nM] | Ki (Table 1) [nM] | SMILES |
| --- | --- | --- |
| 0.95 |  | O=C(NO)C1(S(=O)(=O)c2ccc(-c3cnc(C4CCCC4)cn3)cc2)CCOCC1 [Example 162] |
| 0.15 |  | CN1CCC(C(=O)NO)(S(=O)(=O)c2ccc(-c3ccc(OC(F)(F)C(F)F)cc3)cc2)CC1 [Example 146] |
| 0.048 |  | O=C(NO)C1(S(=O)(=O)c2ccc(-c3ccc(-n4cncn4)cc3)cc2)CCOCC1 [Example 126] |
| 0.31 |  | O=C(NO)C1(S(=O)(=O)c2ccc(-c3cnc(OCC(F)(F)C(F)(F)F)cn3)cc2)CCN(C2CC2)CC1 [Example 156] |
| 2.06 |  | O=C(NO)C1(S(=O)(=O)c2ccc(-c3ccc(CCC(F)(C(F)(F)F)C(F)(F)F)cn3)cc2)CCOCC1 [Example 133] |
|  | 0.45 | O=C(NO)C1(S(=O)(=O)c2ccc(-c3cnc(CCC(F)(F)F)cn3)cc2)CCOCC1 [Example 62] |
|  | 0.06 | COCCN1CCC(C(=O)NO)(S(=O)(=O)c2ccc(-c3ccc(CCCC(F)(F)F)cc3)cc2)CC1 [Example 43] |
| 0.05 |  | COCCN1CCC(C(=O)NO)(S(=O)(=O)c2ccc(-c3ccc(-c4ccccc4)cc3)cc2)CC1 [Example 152] |
| 0.742 |  | CCN1CCC(C(=O)NO)(S(=O)(=O)c2ccc(-c3ccc(Oc4ccccc4)cc3)cc2)CC1 [Example 135] |
| 5.7 |  | CCN1CCC(C(=O)NO)(S(=O)(=O)c2ccc(-c3noc(-c4ccncc4)n3)cc2)CC1 [Example 148] |
| 0.7 |  | O=C(NO)C1(S(=O)(=O)c2ccc(-c3cnc(-c4cccs4)cn3)cc2)CCOCC1 [Example 160] |
|  | 0.0509 | O=C(NO)C1(S(=O)(=O)c2ccc(-c3ccc(OC(F)(F)C(F)F)cc3)cc2)CCOCC1 [Example 68] |
| 3.3 |  | CCc1csc(Nc2ccc(-c3ccc(S(=O)(=O)C4(C(=O)NO)CCOCC4)cc3)cc2)n1 [Example 124] |
| 0.011 |  | CCOc1ccc(-c2ccc(S(=O)(=O)C3(C(=O)NO)CCOCC3)cc2)cc1 [Example 163] |
|  | 0.27 | COCCN1CCC(C(=O)NO)(S(=O)(=O)c2ccc(-c3cnc(CCC(C)(F)F)cn3)cc2)CC1 [Example 65] |
| 0.02 |  | O=CN1CCC(C(=O)NO)(S(=O)(=O)c2ccc(-c3ccc(CCCC(F)(F)F)cn3)cc2)CC1 [Example 159] |
| 0.571 |  | O=C(NO)C1(S(=O)(=O)c2ccc(-c3cnc(N4CCCC4)cn3)cc2)CCOCC1 [Example 138] |
| 5.22 |  | CCCCc1ccc(-c2ccc(S(=O)(=O)C3(C(=O)NO)CCN(CC)CC3)cc2)cn1 [Example 139] |
